Ends that are not written are not given here.
Assays:
hPTH-1 receptors [1] = molecular target: T1, hPTH-1 receptors (Homo sapiens, UniProt Q03431); experiment: cAMP accumulation in HKRK B28 cells; format: cell-based; design: expressed in transfected cells; details: average level
T1 sequence (Q03431 27-593): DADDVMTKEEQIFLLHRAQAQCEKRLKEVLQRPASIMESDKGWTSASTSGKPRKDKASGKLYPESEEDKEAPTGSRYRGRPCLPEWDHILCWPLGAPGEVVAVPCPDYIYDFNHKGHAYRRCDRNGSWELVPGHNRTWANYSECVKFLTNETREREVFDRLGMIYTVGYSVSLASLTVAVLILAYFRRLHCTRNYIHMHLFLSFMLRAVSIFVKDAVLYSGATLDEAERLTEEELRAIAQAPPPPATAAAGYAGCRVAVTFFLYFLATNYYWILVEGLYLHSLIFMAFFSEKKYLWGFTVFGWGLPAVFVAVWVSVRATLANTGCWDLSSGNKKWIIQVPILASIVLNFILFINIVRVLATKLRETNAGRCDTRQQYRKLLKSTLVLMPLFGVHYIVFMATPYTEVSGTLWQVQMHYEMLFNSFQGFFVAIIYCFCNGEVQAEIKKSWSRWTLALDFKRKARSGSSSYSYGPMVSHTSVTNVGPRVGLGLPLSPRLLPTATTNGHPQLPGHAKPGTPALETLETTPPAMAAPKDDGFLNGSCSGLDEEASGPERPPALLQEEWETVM
Experimental: (§1) Intracellular cAMP accumulation, PLC activation and PTHR binding affinity were measured as previously reported (Bringhurst, F. R., et al., Endocrinology 132(5):2090-2098 (1993); Guo, J., et al., Endocrinology 136(9):3884-3891 (1995)). Intracellular cAMP accumulation was measured in extracts of cells that were exposed to human PTH peptides in the presence of isobutylmethyxanthine (IBMX, 1 mM) at 37° C. for 15 min. After terminating the reactions by aspiration and freezing in liquid nitrogen, cell monolayers were extracted with 50 mM HCl and cAMP was measured using a radioimmunoassay kit (Dupont-New England Nuclear, Boston, Mass.).

hPTH-1 receptors [2] = molecular target: T1, hPTH-1 receptors; experiment: radioligand competition binding to HKRK B28 cells; design: expressed in transfected cells; details: HKRK B28 cells; average level
Experimental: (§2) Radioligand competition binding assays were performed at 2-8° C. for 6 hr using ^125I-[Nle^8,21]rat PTH-(1-34) (100,000 cpm/well) in the presence or absence of non-radioactive hPTH-(1-34) analogs. Cell layers were washed three times before solubilization for determination of cell-associated radioactivity.

hPTH-2 receptors [3] = molecular target: T2, hPTH-2 receptors (Homo sapiens, UniProt P49190); experiment: radioligand competition binding to HPR2-7 cells; details: average level
T2 construct: expressed in transfected cells
T2 sequence (P49190 25-550): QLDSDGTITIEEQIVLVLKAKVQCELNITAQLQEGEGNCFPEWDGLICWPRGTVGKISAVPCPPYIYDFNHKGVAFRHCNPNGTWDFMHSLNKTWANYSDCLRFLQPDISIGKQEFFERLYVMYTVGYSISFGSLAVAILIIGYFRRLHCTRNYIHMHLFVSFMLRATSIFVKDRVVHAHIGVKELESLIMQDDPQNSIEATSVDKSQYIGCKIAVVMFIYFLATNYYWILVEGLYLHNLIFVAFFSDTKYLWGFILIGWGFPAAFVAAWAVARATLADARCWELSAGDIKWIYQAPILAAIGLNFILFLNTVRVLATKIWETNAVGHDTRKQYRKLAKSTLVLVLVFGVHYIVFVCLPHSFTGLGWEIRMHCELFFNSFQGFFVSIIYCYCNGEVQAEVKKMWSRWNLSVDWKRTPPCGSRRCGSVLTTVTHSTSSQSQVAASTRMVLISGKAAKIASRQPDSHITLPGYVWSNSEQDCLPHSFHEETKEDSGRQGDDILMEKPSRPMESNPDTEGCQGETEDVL
Experimental: as §2

hPTH-2 receptors [4] = molecular target: T2, hPTH-2 receptors; experiment: cAMP measurements in clonal LLC-PK1 cells (HPR2-7); format: cell-based; details: HPR2-7 cells; average level
Source text: (§3) The following cell lines were used in these studies. HKRK C53 subclones of LLC-PKI porcine renal epithelial cells which stably express human PTH-1 receptors (150,000 receptors/cell). SaOS-2 cells are transformed human osteosarcoma cells which express relatively few (10,000-20,000 per cell) human PTH-1 receptors. HPR2-7 cells are subclones of LLC-PK1 which express approximately 250,000 recombinant human PTH-2 receptors per cell. […] The HPR2-27 and HPR2-22 cell lines were created in the same fashion as the HKRK cells but employing instead type 2 PTH receptor cDNA using the transfection technique of (Bringhurst, F. R., et al., Endocrinology 132(5):2090-2098 (1993); Guo, J., et al., Endocrinology 136(9):3884-3891 (1995)).
as §1

hPTH-1 receptors [5] = molecular target: T1, hPTH-1 receptors; experiment: radioligand binding to HKRK C53 cells; design: expressed in transfected cells; details: average level
Source text: (§4) The following cell lines were used in these studies. HKRK C53 subclones of LLC-PKI porcine renal epithelial cells which stably express human PTH-1 receptors (150,000 receptors/cell). SaOS-2 cells are transformed human osteosarcoma cells which express relatively few (10,000-20,000 per cell) human PTH-1 receptors. HPR2-7 cells are subclones of LLC-PK1 which express approximately 250,000 recombinant human PTH-2 receptors per cell. HKRK-B7 cells are subclones of LLC-PK which stably express approximately 1 million hPTH-1 receptors per cell. HPR2-22 cells are subclones of LLC-PK1 which express 1.5 million recombinant hPTH-2 receptors per cell. The HPR2-27 and HPR2-22 cell lines were created in the same fashion as the HKRK cells but employing instead type 2 PTH receptor cDNA using the transfection technique of (Bringhurst, F. R., et al., Endocrinology 132(5):2090-2098 (1993); Guo, J., et al., Endocrinology 136(9):3884-3891 (1995)).
as §2

hPTH-1 receptors [6] = molecular target: T1, hPTH-1 receptors; experiment: IP3 formation in HKRK C53 cells; format: cell-based; design: expressed in transfected cells; details: average level
Source text: as §4
PLC was activated by PTH agonists in the presence of 30 mM LiCl at 37° C. for 30 min after 16 hr of labeling with [^3H]myo-inositol (3uCi/ml) in serum-free medium containing 0.1% bovine serum albumin. The reactions were stopped by rapid aspiration and addition of cold 5% TCA. Water-soluble radiolabeled inositol trisphosphate (IP3) was isolated after ether extraction by ion-exchange chromatography (Guo, J., et al., Endocrinology 136(9):3884-3891 (1995)). […]

hPTH-1 receptors [7] = molecular target: T1, hPTH-1 receptors; experiment: phospholipase C (PLC) activity in HKRK-B7 cells; format: cell-based; design: expressed in transfected cells; details: about 1 million hPTH-1 receptors per cell, 1000 nM (FIG. 4)
Source text: as §4
(§5) PLC was activated by PTH agonists in the presence of 30 mM LiCl at 37° C. for 30 min after 16 hr of labeling with [^3H]myo-inositol (3uCi/ml) in serum-free medium containing 0.1% bovine serum albumin. The reactions were stopped by rapid aspiration and addition of cold 5% TCA. Water-soluble radiolabeled inositol trisphosphate (IP3) was isolated after ether extraction by ion-exchange chromatography (Guo, J., et al., Endocrinology 136(9):3884-3891 (1995)). In experiments involving HEK 293 cells, cells previously transfected with human PTHR cDNA (in the pcDNA1 expression vector HKRK) using Lipofectamine (Gibco BRL) were labeled with [^3H]myo-inositol and assayed as described above, except that total water-soluble [^3H]inositol polyphosphates were collected as a single fraction from the ion-exchange columns.

hPTH-1 receptors [8] = molecular target: T1, hPTH-1 receptors; experiment: cAMP accumulation (adenylyl cyclase activation) in HKRK C53 cells; format: cell-based; design: expressed in transfected cells; details: HKRK C53 cells; average level
Source text: as §3, §1

hPTH-2 receptors [9] = molecular target: T2, hPTH-2 receptors; experiment: cAMP accumulation in HPR2-22 cells; format: cell-based; details: average level
Source text: as §4, with “The HPR2-27 and HPR2-22 cell lines were created in the same fashion as the HKRK cells but employing instead type 2 PTH receptor cDNA using the transfection technique of (Bringhurst, F. R., et al., Endocrinology 132(5):2090-2098 (1993); Guo, J., et al., Endocrinology 136(9):3884-3891 (1995)).” left out
as §1

human PTHRs = molecular target: T3, human PTHRs (Homo sapiens, UniProt Q03431); experiment: PLC activation in COS-7 cells expressing human PTHRs; format: cell-based; details: up to 1000 nM
T3 sequence (Q03431 27-593): T1 sequence (Q03431 27-593)
Experimental: (§6) All cells were maintained under 5% CO2 in air in Dulbecco's modified […] containing 7% fetal bovine serum (FBS) and 1% penicillin/streptomycin (GIBCO-BRL, Grand Island, N.Y.). Cells were seeded into 24-well plates two days before assay at a suitable cell density (approximately 2-2.5×10^5 cells/well). DNA transfections in COS/HEK cells were performed 24 hr after plating and inositol radiolabel was added 24 hr thereafter (see below). Cell transfections were performed as previously described (Gardella, T. J., et al., Endocrinology 132(5):2024-2030 (1993)).
as §5

rat PTHRs = molecular target: T4, rat PTHRs (Rattus norvegicus, UniProt P25961); experiment: PLC activation in COS-7 cells expressing rat PTHRs; format: cell-based; details: up to 1000 nM
T4 construct: expressed in transfected cells; host or cells: COS-7 cells
T4 sequence (P25961 27-591): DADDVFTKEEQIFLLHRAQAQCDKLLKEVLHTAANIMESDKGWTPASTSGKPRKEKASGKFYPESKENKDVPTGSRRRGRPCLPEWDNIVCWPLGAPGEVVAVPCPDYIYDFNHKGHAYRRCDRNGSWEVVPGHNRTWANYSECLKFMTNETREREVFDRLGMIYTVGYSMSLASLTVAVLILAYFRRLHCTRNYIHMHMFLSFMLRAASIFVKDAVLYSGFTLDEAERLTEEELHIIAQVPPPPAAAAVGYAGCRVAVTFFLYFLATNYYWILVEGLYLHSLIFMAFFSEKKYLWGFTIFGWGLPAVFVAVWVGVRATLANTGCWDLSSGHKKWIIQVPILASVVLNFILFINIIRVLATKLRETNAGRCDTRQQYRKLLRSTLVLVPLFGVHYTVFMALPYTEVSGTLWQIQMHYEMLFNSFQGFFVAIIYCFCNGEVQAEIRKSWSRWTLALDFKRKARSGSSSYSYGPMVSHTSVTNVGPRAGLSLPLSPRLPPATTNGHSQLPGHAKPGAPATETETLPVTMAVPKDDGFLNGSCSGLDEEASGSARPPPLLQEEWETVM
Experimental: as §6, §5

Row | cAMP accumulation in the presence of maximal concentrations of peptide (hPTH-1 receptors [1]) | binding in the presence of maximal concentrations of peptide (hPTH-1 receptors [2]) | binding in the presence of maximal concentrations of peptide (hPTH-2 receptors [3]) | cAMP accumulation in the presence of maximal concentrations of peptide (hPTH-2 receptors [4]) | binding in the presence of maximal concentrations of peptide (hPTH-1 receptors [5]) | IP3 formation in the presence of maximal concentrations of peptide (hPTH-1 receptors [6]) | activation of PLC (hPTH-1 receptors [7]) | cAMP accumulation in the presence of maximal concentrations of peptide (hPTH-1 receptors [8]) | cAMP accumulation in the presence of maximal concentrations of peptide (hPTH-2 receptors [9]) | activation of PLC (human PTHRs) | activation of PLC (rat PTHRs) | Compound
1 | 337±55 pmoles/well/15 min | 16,137±919 cpm/well | 4541±386 cpm/well | 133±14 pmoles/well/15 min | 956±135 cpm/well | 1908±251 cpm/well | fill agonists | 207±37 pmoles/well/15 min | 286±8 pmoles/well/15 min |  |  | CC[C@H](C)[C@H](NC(=O)[C@H](CCC(=O)O)NC(=O)[C@H](CO)NC(=O)[C@@H](NC(=O)[C@@H](N)CO)C(C)C)C(=O)N[C@@H](CCC(N)=O)C(=O)N[C@@H](CC(C)C)C(=O)N[C@@H](CCSC)C(=O)N[C@@H](Cc1c[nH]cn1)C(=O)N[C@@H](CC(N)=O)C(=O)N[C@@H](CC(C)C)C(=O)NCC(=O)N[C@@H](CCCCN)C(=O)N[C@@H](Cc1c[nH]cn1)C(=O)N[C@@H](CC(C)C)C(=O)N[C@@H](CC(N)=O)C(=O)N[C@@H](CO)C(=O)N[C@@H](CCSC)C(=O)N[C@@H](CCC(=O)O)C(=O)N[C@@H](CCCNC(=N)N)C(=O)N[C@H](C(=O)N[C@@H](CCC(=O)O)C(=O)N[C@@H](Cc1c[nH]c2ccccc12)C(=O)N[C@@H](CC(C)C)C(=O)N[C@@H](CCCNC(=N)N)C(=O)N[C@@H](CCCCN)C(=O)N[C@@H](CCCCN)C(=O)N[C@@H](CC(C)C)C(=O)N[C@@H](CCC(N)=O)C(=O)N[C@@H](CC(=O)O)C(=O)N[C@H](C(=O)N[C@@H](Cc1c[nH]cn1)C(=O)N[C@@H](CC(N)=O)C(=O)N[C@@H](Cc1ccccc1)C(N)=O)C(C)C)C(C)C [hPTH(1-34)NH2]
2 |  |  |  |  |  |  | did not activate PLC |  |  | did not activate PLC | did not activate PLC | hPTH-(3-34): N-truncated human PTH peptide, residues 3-34 (SEIQLMHNLGKHLNSMERVEWLRKKLQDVHNF-NH2; UniProt P01270 34-65, looked up, fragment)

— US6537965B1, “Amino-terminal modified parathyroid hormone (PTH) analogs” (The General Hospital Corporation, priority 1998, dated 2003)
